Test system: ALS patient-derived iMNs (C9orf72 pathology)
Experiment: iPSC-derived motor neuron (iMN) survival assay with neurotrophic factor withdrawal
Assay type: cell-based, human
Conditions: for Median survival time of treated ALS iMNs: ALS patient-derived iMNs, 14-day period; for Surviving iMNs (cell count): 300 tracked ALS iMNs on day 0
Protocol: In this study, iPSC-derived iMNs were generated from PALS (C9orf72 pathology) and from healthy donors' PBMCs. Neuronal survival rate was compared between PrimeC's components, their combination, and the relevant DMSO vehicle reference as described in Figure 2A-C. […] form between days 13 and 16 after transduction of iMN factors. The iMN survival assay was initiated on day 17. Starting at Day 17, longitudinal tracking of iMNs was performed using Molecular Devices ImageExpress once every other day for 16 days. Tracking of neuronal survival was performed using ImageJ version 1.53t. Neurons were scored as dead when their soma was no longer detectable by RFP fluorescence. iMN survival experiments included neurotrophic factor withdrawal in order to exacerbate the survival difference between control and PALS' iMNs. Neurotrophic factor withdrawal of FGF-2, BDNF, GDNF, and CNTF from the culture medium was performed on day 17. For treatment with drugs, cultures were treated with DMSO or a drug after neurotrophic factor withdrawal (starting at day 17). Treatment with fresh media containing vehicle or drugs occurred every 3 days for 16 days. […] Control cell lines of non-neurological subjects (i.e., neurologically healthy controls) were used in the comparisons. […] A hazard ratio was calculated for each of the comparisons as the likelihood of neuron death when treated with the indicated compound divided by the likelihood of neuron death when treated with another indicated compound. The lower the ratio, the […] it is for a cell to die when treated with the second compound compared to being treated with the first compound in each comparison above, and vice versa. Analysis utilized GraphPad Prism version 10.0.2 GraphPad. […] Kaplan-Meier plots were generated using iMNs obtained from each treatment condition in replicates of three. Confirmation of iMN survival times was analyzed by manual longitudinal tracking.

[1] = day 16, day 16 excluded from survival analyses

Row | Compound | Median survival time of treated ALS iMNs [days] | Surviving iMNs (cell count) (day 2) | Surviving iMNs (cell count) (day 4) | Surviving iMNs (cell count) (day 6) | Surviving iMNs (cell count) (day 8) | Surviving iMNs (cell count) (day 10) | Surviving iMNs (cell count) (day 12) | Surviving iMNs (cell count) (day 14) | Surviving iMNs (cell count) [1]
1 | Cc1ccc(-c2cc(C(F)(F)F)nn2-c2ccc(S(N)(=O)=O)cc2)cc1 [Celecoxib, celecoxib] | 8 | 300 | 272 | 227 | 190 | 139 | 104 | 79 | 55
2 | O=C(O)c1cn(C2CC2)c2cc(N3CCNCC3)c(F)cc2c1=O [Ciprofloxacin, ciprofloxacin] | 8 | 300 | 262 | 238 | 210 | 177 | 146 | 118 | 74

Source: PMC12030000 (Pharmaceuticals, 2025)
